Publication PMC6085657, “DNA display of fragment pairs as a tool for the discovery of novel biologically active small molecules” (Chemical Science, 2014)
Where “and” joins values, the source holds several entries; their conditions need not be identical. Equal values may be shown once. Entries after “also recorded” stand apart in the source; their conditions may differ. Read-outs that look alike come from different tables or passages of the source.

Experiments:
Hsp70 [1] = molecular target: T1, Hsp70 (Homo sapiens, UniProt P0DMV8); parameters: method as in PMID 16806043; details: read-out: affinity of Hsp70 for ligand; cited from earlier work
Hsp70 [2] = molecular target: T1, Hsp70; assay: Fluorescence polarization displacement assay with 1-FITC; format: binding; details: 1-FITC 25 nM, Hsp70 100 nM; R2 = 0.998; read-out: Affinity for Hsp70 by fluorescence polarization displacement (IC50)
Hsp70/Hsp40 = molecular target: T2, Hsp70/Hsp40 (Homo sapiens, UniProt P0DMV8); assay: Malachite Green Hsp70 ATPase assay; format: biochemical; details: for inhibition at 1 µM: 1 molar equivalent to Hsp70 (1 μM), read-out: ATPase inhibition in dose response; for ATPase inhibition: 200 molar equivalence of inhibitor (200 μM), Hsp70/Hsp40 1 μM, ATP 1 mM
T2 construct: purchased Novus Biologicals NBC1-18367

Hsp70-GST [3] = molecular target: T3, Hsp70-GST (Homo sapiens, UniProt P0DMV8); assay: Microarray-based screen of the focused library against Hsp70-GST (fluorescence, anti-GST DyLight 649); format: binding; details: fluorescence intensity on the microarray, mean of four spots, SD between 5% and 10%; PNA-tagged library member
T3 construct: purchased Signal Chem H34-54G
Description: A microarray pairing 125 biologically validated fragments[11] (FDA-approved drugs, bioactive natural products or fragments thereof) with a library of 500 heterocycles was used as a preliminary screen.[6] The microarray contained 62 500 unique DNA sequences that combinatorially paired both fragment libraries. […] The result from this screen with Hsp70 is shown in Fig. 2, arranged with fragments from the 125-fragment set and 500-fragment set on horizontal and vertical lines, respectively. The recurrence of binding across a line reflects the fitness of a given fragment. Thus, line intensities were used to rank the different fragments. What is interesting is that lines across the library of the 500-fragment set (4B, 24B, 44B, 84B, 124B, …) shared a common structural motif (biaryl-ether; Fig. 2). […] It is noteworthy that this biaryl moiety is part of a previously reported Hsp70 ligand (MAL3-101).[13],[14] […] Although screening fragments as conjugates to a nucleic acid tag restricts their binding mode to a particular orientation (the orientation that will position the linker to the tag toward the outside of the binding pocket), it greatly facilitates the synthesis of the corresponding covalent adduct combining both fragments, as the same chemistry that was used to link the fragments to the tag can be used to covalently pair them. Nonetheless, the linker length and conformational bias must be identified experimentally. We reasoned that the identified fragments could be used as the starting point for a focused library covalently pairing the fragments. This would allow for supplementing the selected fragment set with new entities (near neighbours) and enriching the local diversity space around these initial hits. Such iterative processes are highly efficient in sifting through a large diversity space. Following this strategy, we designed an Hsp70-focused library of 10 000 members using 20 fragments A × 5 different linkers with different lengths and geometrical constraints × 100 fragments B. The 100-fragment set contained 90 entities that were not present in the original screen. To be viable, an iterative library synthesis approach should be leveraged on chemistry that is compatible with SPPS and can be performed by automated PNA-encoded synthesis. As shown in Scheme 1, this was achieved through the use of three orthogonal amino group masking strategies (Mtt, Fmoc, and azide) that enabled selective chemical reactions at both sites of the linker joining the fragment and the encoding site. Thus, a resin derivatized with lysine with orthogonal protecting groups (Mtt and N3) was split into 100 pools and deprotected on one end (Mtt deprotection using HFIP), and the different linkers to join both fragments were introduced by standard peptide coupling method, affording the two sites for fragment coupling protected by Fmoc and Mtt, respectively.[15] The fragments were coupled using two different chemistries: for fragments containing a carboxylic acid, DIC/HOBt was used; for fragments with an amino group, hydroxyl, or aniline, the amino-functionalized linker was first treated with 4-nitrophenylchloroformate and the resulting carbamate coupled with the fragment. The azide was next reduced and the first 100 pools were encoded with a 7mer Boc-protected PNA sequence. The resins were mixed and split to introduce the second encoding 7mer sequence followed by deprotection of Mtt and the introduction of the corresponding second fragments. The success of each fragment coupling and encoding step was verified by MALDI analysis of an analytical sample. Cleavage of the final library and hybridization afforded the spatially resolved 10 000-member Hsp70-focused library. A slide containing 4-fold redundancy of each DNA sequence randomly distributed on the array was used to have four data points for each small molecule–target interaction, thus allowing a statistical analysis of the hits. The array was screened under three different conditions: Hsp70, Hsp70 + Hsp40, and Hsp70 + ATP. […]

Hsp70 [4] = molecular target: T1, Hsp70; assay: SPR affinity measurement, biotinylated compounds immobilized on a streptavidin chip, Hsp70 analyte; format: binding; details: compound immobilized on streptavidin chip, values in parentheses have chi2 > 10
Hsp90 [5] = assay: SPR affinity measurement, biotinylated compounds immobilized on a streptavidin chip, Hsp90 analyte; format: binding; details: compound immobilized on streptavidin chip, values in parentheses have chi2 > 10
Hsp70-GST [6] = molecular target: T3, Hsp70-GST; assay: Protein pull-down with ligand immobilized on streptavidin magnetic beads, Hsp70; format: binding; details: recombinant Hsp70-GST 300 nM, SDS PAGE
Hsp90 [7] = assay: Protein pull-down with ligand immobilized on streptavidin magnetic beads, Hsp90; format: binding; details: recombinant Hsp90 300 nM, SDS PAGE
Hsp70 [8] = molecular target: T1, Hsp70; assay: Pull-down of Hsp70 from crude HEK cell lysates, Western blot; format: binding; details: HEK lysate, Western blot with anti-Hsp70 antibody
carbonic anhydrase = molecular target: T4, carbonic anhydrase (Homo sapiens, UniProt P00918); assay: Pull-down from crude HEK cell lysates, Western blot for carbonic anhydrase (negative control); format: binding; details: HEK lysate, negative control protein
T4 construct: endogenous in cells; host or cells: HEK293-T

[9] = molecular target: T5, Heat shock 70 kDa protein 1A/1B (Homo sapiens, UniProt P0DMV8); assay: Proteomic (MS-MS) analysis of pull-down from HEK crude cell lysate; format: binding; details: Hsp71_HUMAN in pull-down from HEK crude cell lysate
T5 construct: endogenous in cells; host or cells: HEK293-T

Hsp70 [10] = molecular target: T1, Hsp70; parameters: method as in PMID 15448148; details: cited from earlier work

T2 sequence (P0DMV8 whole entry): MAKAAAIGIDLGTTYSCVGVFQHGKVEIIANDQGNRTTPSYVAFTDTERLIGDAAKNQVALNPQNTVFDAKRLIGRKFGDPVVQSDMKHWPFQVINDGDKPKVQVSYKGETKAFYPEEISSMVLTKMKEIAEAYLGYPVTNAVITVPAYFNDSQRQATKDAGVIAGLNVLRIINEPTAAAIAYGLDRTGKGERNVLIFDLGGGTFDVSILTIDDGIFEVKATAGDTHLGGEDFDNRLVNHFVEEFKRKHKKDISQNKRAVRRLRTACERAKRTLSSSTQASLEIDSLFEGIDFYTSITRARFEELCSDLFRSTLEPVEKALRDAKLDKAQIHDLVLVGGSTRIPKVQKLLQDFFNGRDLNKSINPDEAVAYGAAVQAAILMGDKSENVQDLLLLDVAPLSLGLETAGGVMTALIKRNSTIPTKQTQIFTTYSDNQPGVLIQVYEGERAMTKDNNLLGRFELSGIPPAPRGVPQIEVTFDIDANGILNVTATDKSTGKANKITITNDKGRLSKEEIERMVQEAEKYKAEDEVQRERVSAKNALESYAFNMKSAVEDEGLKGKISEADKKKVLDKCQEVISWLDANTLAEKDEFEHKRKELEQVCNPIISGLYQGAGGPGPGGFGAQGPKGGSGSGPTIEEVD
T1 sequence (P0DMV8 whole entry): as above
T3 sequence (P0DMV8 whole entry): as above
T5 sequence (P0DMV8 whole entry): as above

## Nc1ncnc2c1ncn2[C@@H]1O[C@H](COP(=O)(O)OP(=O)(O)O)[C@@H](O)[C@H]1O [ADP]
Hsp70 [1]
  Kd: 260 nM

## Cc1ccc(/C=C/C(=O)NCC(NC(=O)c2ccc(NC(=O)CCC(=O)c3ccc(-c4ccccc4)cc3)cc2)C(N)=O)cc1 (stereo not drawn) [Compound 1b]
Hsp70 [2]
  IC50: 31 nM
Hsp70/Hsp40
  inhibition at 1 µM: > 50%
  ATPase inhibition: complete inhibition

## Cc1oncc1C(=O)Nc1ccc(O)c(C(=O)NCC(NC(=O)c2ccc(NC(=O)CCC(=O)c3ccc(-c4ccccc4)cc3)cc2)C(=O)NCCCCC(NC(=O)COCCOCCNC(=O)CCCCC2SCC3NC(=O)NC32)C(N)=O)c1 (stereo not drawn) [Compound 2a]
Hsp70-GST [3]
  FU microarray HSP70-GST: 28 653 FU
Hsp70 [4]
  Kd: 1.58 nM
Hsp90 [5]
  KD HSP90: no measurable affinity; also recorded: Low binding
Hsp70-GST [6]
  capture of Hsp70 on streptavidin magnetic beads: retained Hsp70
Hsp90 [7]
  capture of Hsp90 on streptavidin magnetic beads: not Hsp90
Hsp70 [8]
  retention of Hsp70 from crude cell lysates: retained Hsp70
Carbonic anhydrase
  retention of carbonic anhydrase from crude cell lysates: no carbonic anhydrase
[9]
  % Protein Coverage: 24.8%

## Cc1oncc1C(=O)Nc1ccc(O)c(C(=O)NCC(NC(=O)c2ccc(NC(=O)CCC(=O)c3ccc(-c4ccccc4)cc3)cc2)C(N)=O)c1 (stereo not drawn) [Compound 2b]
Hsp70/Hsp40
  inhibition at 1 µM: > 50%
  ATPase inhibition: complete inhibition

## CSc1nnc(CCCOC(=O)NCC(NC(=O)CC2=C(C)C(=Cc3ccc([S+](C)[O-])cc3)c3ccc(F)cc32)C(=O)NCCCCC(NC(=O)COCCOCCNC(=O)CCCCC2SCC3NC(=O)NC32)C(N)=O)n1-c1ccc(Cl)cc1Cl (stereo not drawn) [Compound 4a]
Hsp70-GST [3]
  FU microarray HSP70-GST: 28 566 FU
Hsp70 [4]
  Kd: 2.69 nM
Hsp90 [5]
  Kd: 10.7 nM

## NC(=O)C(CCCCNC(=O)C(CNC(=O)c1cccc(-c2cccnc2)c1)NC(=O)c1ccc(NC(=O)COCC(=O)N2CCCN(S(=O)(=O)c3cccc4cnccc34)CC2)cc1)NC(=O)COCCOCCNC(=O)CCCCC1SCC2NC(=O)NC21 (stereo not drawn) [Compound 5a]
Hsp70-GST [3]
  FU microarray HSP70-GST: 28 447 FU
Hsp70 [4]
  Kd: 0.38 nM
Hsp90 [5]
  Kd: 5.44 nM

## CSc1nnc(CCCOC(=O)NCCCCC(NS(=O)(=O)c2ccc(-c3ccccc3)cc2)C(=O)NCCCCC(NC(=O)COCCOCCNC(=O)CCCCC2SCC3NC(=O)NC32)C(N)=O)n1-c1ccc(Cl)cc1Cl (stereo not drawn) [Compound 6a]
Hsp70-GST [3]
  FU microarray HSP70-GST: 28 958 FU
Hsp70 [4]
  Kd: 2.33 nM
Hsp90 [5]
  Kd: 18.7 nM

## NC(=O)C(CCCCNC(=O)C(CCCCNC(=O)c1ccc2[nH]nc(Br)c2c1)NS(=O)(=O)c1ccc(-c2ccccc2)cc1)NC(=O)COCCOCCNC(=O)CCCCC1SCC2NC(=O)NC21 (stereo not drawn) [Compound 7a]
Hsp70-GST [3]
  FU microarray HSP70-GST: 24 143 FU
Hsp70 [4]
  Kd: 1.34 nM
Hsp90 [5]
  Kd: 3.17 nM

## COc1ccc(C=CC(=O)NCC(NC(=O)c2cccc(NC(=O)CCC(=O)c3ccc(-c4ccccc4)cc3)c2)C(=O)NCCCCC(NC(=O)COCCOCCNC(=O)CCCCC2SCC3NC(=O)NC32)C(N)=O)cc1OC (stereo not drawn) [Compound 8a]
Hsp70-GST [3]
  FU microarray HSP70-GST: 27 982 FU
Hsp70 [4]
  Kd: 0.8 nM
Hsp90 [5]
  Kd: 16.9 nM

## NC(=O)C(CCCCNC(=O)C(CNC(=O)c1ccc2[nH]nc(Br)c2c1)NC(=O)c1cccc(NC(=O)CCC(=O)c2ccc(-c3ccccc3)cc2)c1)NC(=O)COCCOCCNC(=O)CCCCC1SCC2NC(=O)NC21 (stereo not drawn) [Compound 9a]
Hsp70-GST [3]
  FU microarray HSP70-GST: 29 024 FU
Hsp70 [4]
  Kd: 0.64 nM
Hsp90 [5]
  Kd: 14.7 nM

## COc1ccc(C=CC(=O)NCC(NC(=O)c2ccc(NC(=O)COCC(=O)NC(C)COc3c(C)cccc3C)cc2)C(=O)NCCCCC(NC(=O)COCCOCCNC(=O)CCCCC2SCC3NC(=O)NC32)C(N)=O)cc1OC (stereo not drawn) [Compound 10a]
Hsp70-GST [3]
  FU microarray HSP70-GST: 28 961 FU
Hsp70 [4]
  Kd: 1.88 nM
Hsp90 [5]
  Kd: 2.97 nM

## CC(C(=O)Nc1cccc(C(=O)NC(CNC(=O)c2ccc3[nH]nc(Br)c3c2)C(=O)NCCCCC(NC(=O)COCCOCCNC(=O)CCCCC2SCC3NC(=O)NC32)C(N)=O)c1)c1cccc(Oc2ccccc2)c1 (stereo not drawn) [Compound 11a]
Hsp70-GST [3]
  FU microarray HSP70-GST: 27 941 FU
Hsp70 [4]
  Kd: 12 nM and 12.1 nM
Hsp90 [5]
  Kd: 5.6 nM

## CSc1nnc(CCCOC(=O)NCC(NC(=O)CCC(=O)c2ccc(-c3ccccc3)cc2)C(=O)NCCCCC(NC(=O)COCCOCCNC(=O)CCCCC2SCC3NC(=O)NC32)C(N)=O)n1-c1ccc(Cl)cc1Cl (stereo not drawn) [Compound 12a]
Hsp70-GST [3]
  FU microarray HSP70-GST: 28 174 FU
Hsp70 [4]
  Kd: 2.02 nM
Hsp90 [5]
  Kd: 10.1 nM

## CCC(COC(=O)NCCCCC(NC(=O)CC1=C(C)C(=Cc2ccc([S+](C)[O-])cc2)c2ccc(F)cc21)C(=O)NCCCCC(NC(=O)COCCOCCNC(=O)CCCCC1SCC2NC(=O)NC21)C(N)=O)c1ccccc1 (stereo not drawn) [Compound 13a]
Hsp70-GST [3]
  FU microarray HSP70-GST: 27 215 FU
Hsp70 [4]
  Kd: 1.16 nM
Hsp90 [5]
  Kd: 29.5 nM

## COc1ccc(C=CC(=O)NCC(NC(=O)c2cccc(NS(=O)(=O)c3ccc(-c4ccccc4)cc3)c2)C(=O)NCCCCC(NC(=O)COCCOCCNC(=O)CCCCC2SCC3NC(=O)NC32)C(N)=O)cc1OC (stereo not drawn) [Compound 14a]
Hsp70-GST [3]
  FU microarray HSP70-GST: 28 588 FU
Hsp70 [4]
  Kd: 2.88 nM
Hsp90 [5]
  Kd: 52.8 nM

## Cc1ccc(C(=O)NCC(NC(=O)c2cccc(NS(=O)(=O)c3ccc(Oc4ccccc4)cc3)c2)C(=O)NCCCCC(NC(=O)COCCOCCNC(=O)CCCCC2SCC3NC(=O)NC32)C(N)=O)cc1[N+](=O)[O-] (stereo not drawn) [Compound 15a]
Hsp70-GST [3]
  FU microarray HSP70-GST: 28 732 FU
Hsp70 [4]
  Kd: 1.3 nM
Hsp90 [5]
  Kd: 35.3 nM

## CCCCCCN(C(=O)CCCCCN1C(=O)NC(c2ccc(-c3ccccc3)cc2)C(C(=O)OCc2ccccc2)=C1C)C(C(=O)NCCCC)c1ccc(OCC(=O)OC)c(C(=O)OC)c1 (stereo not drawn) [MAL3-101]
Hsp70 [10]
  effect on Hsp70 ATPase activity: stimulate this activity
